Some results are limits rather than exact numbers.

One may read the IC50 as the concentration needed to halve the response being measured.

Data set [1] has as its target Hgk (Homo sapiens, UniProt O95819). Put plainly: Biochemical inhibitory activity, other protein kinases: Hgk. The conditions noted are these: for Kinase having IC50 of >1 μM: listing of the kinase means IC50 >1 μM; for Kinase having IC50 of <1 μM: listing of the kinase means IC50 <1 μM.
Data set [2] can be described thus: Relative solubility by turbidity in aqueous buffers. Conditions: pH 1.4 as headed (Simulated Gastric Fluid). The class given is physicochemical.
Data set [3] concerns the target T1, CYP1A2 (Homo sapiens, UniProt P05177).
T1 construct: purchased BD Biosciences
T1 sequence (P05177 1-516): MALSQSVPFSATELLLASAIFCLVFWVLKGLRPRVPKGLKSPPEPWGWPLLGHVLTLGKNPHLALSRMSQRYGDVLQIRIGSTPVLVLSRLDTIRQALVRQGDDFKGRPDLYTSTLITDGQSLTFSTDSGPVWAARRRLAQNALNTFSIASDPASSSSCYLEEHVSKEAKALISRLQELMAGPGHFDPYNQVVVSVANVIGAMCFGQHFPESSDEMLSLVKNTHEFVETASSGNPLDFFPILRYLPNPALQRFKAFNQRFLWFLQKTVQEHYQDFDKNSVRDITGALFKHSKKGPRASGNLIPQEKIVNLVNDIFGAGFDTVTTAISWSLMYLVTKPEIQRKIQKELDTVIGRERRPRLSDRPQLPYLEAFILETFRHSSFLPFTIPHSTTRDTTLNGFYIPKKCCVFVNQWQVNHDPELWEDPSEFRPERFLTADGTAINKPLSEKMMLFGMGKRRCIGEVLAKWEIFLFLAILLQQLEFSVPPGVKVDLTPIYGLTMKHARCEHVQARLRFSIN
Put plainly: CYP inhibition (fluorescent substrate), CYP1A2. The conditions noted are these: substrate CEC; read-out: Cyp IC50 (μM) 1A2. The format is in vitro ADME. The procedure:
(§1) CYP (Cytochrome P450) enzymes are the major drug metabolizing enzymes present in the liver. The inhibition of CYP enzyme activity (IC50) for each of CYP1A2, CYP2C19, CYP2C9, CYP2D6, CYP3A4(BFC) and CYP3A4(BQ) is determined for compounds, where inhibition of metabolism of a known substrate leads to a decrease in the fluorescence of the metabolized product. The fluorescence of the product is monitored as a function of compound concentration. Compounds are dissolved in dimethyl sulfoxide to a concentration of 100 mM. These are diluted 1 μL into 82 μL of acetonitrile. An 11 μL aliquot of this solution is then added to 204 μL of cofactor mix (1.3% NADPH Regeneration system Solution A, 1.04% NADPH Regeneration system Solution B from BD Biosciences, 5% acetonitrile and 0.05% dimethyl sulfoxide). These are then serially diluted 1:1 (160 μL to 160 μL co-factor mix) for a total of 10 points. A 10 μL aliquot of this final mixture is dispensed into 384 well assay plates and incubated for 10 minutes at 37° C. […] Assay plates are incubated at 37° C. (CYP1A2-15 min; CYP2C9-45 min; CYP2C19, 2D6 and 3A4-30 min) and read in a Tecan Safire 2 plate reader (CYP1A2, 2C19 and 3A4 409 ex/460 em; CYP2C9 and 2D6 409 ex/530 em). The signal versus compound concentration is used to determine the IC50. The enzymes and substrates for this assay are obtained from BD Biosciences.

Data set [4] has as its system COLO205 cells. Briefly: Cell growth inhibition (Cell Titer Glo), COLO205. The class given is cell-based. The conditions noted are these: Homo sapiens, COLO 205, 72 h; B-Raf V600E cell line, 3 days. The procedure:
(§2) Compounds are assessed in a variety of cell based assays, employing cells with or without B-Raf V600E mutation, for example cell lines with B-Raf V600E mutation (A375 and COLO205), as well as tumorigenic cell lines with wild-type B-RAF (SW620 and SK-MEL-2). Reagent and assay conditions are as follows:
COLO205 cells growth medium: • RPMI 1640, 2 mM L-glutamine, 1.5 g/L sodium bicarbonate, 4.5 g/L D-glucose, 10 mM HEPES, 1.0 mM sodium pyruvate, 10% fetal bovine serum.
(§3) SK-MEL-2 cells growth medium: • Minimum Eagle essential medium, 2 mM L-glutamine, 1.5 g/L sodium bicarbonate, 0.1 mM non-essential amino acids, 1.0 mM sodium pyruvate, 10% fetal bovine serum. • On day 1, cells are seeded in growth media in 200 μL per well in a 96-well polystyrene tissue culture plate at 2,000 cells per well (A375, COLO205, SK-MEL-2) or 5,000 cells per well for SW620, and incubated at 37° C. and 5% CO2 overnight. • On day 2, compound at 4 mM in dimethyl sulfoxide is serially diluted 1:4 (10 μL with 30 μL dimethyl sulfoxide) seven times for a total of 8 concentration points. For each dilution point a 1 μL aliquot is added to a well containing cells (highest dilution point at 20 μM), with 1 μL of dimethyl sulfoxide as a negative control (each sample at 0.5% dimethyl sulfoxide). The cells are incubated for 3 days at 37° C. in 5% CO2. • On day 5, Cell Titer Glo (Promega) is thawed and added 100 μL to each well and the plate shaken for 1-2 minutes. The plates are incubated for 10 minutes at room temperature, then […] signal is read (e.g. on Safire reader). The measured fluoresence correlates directly with cell number, such that the reading as a function of compound concentration is used to determine the IC50 value.
In general terms: Cellular ATP, detected with luciferase, serves as a proxy for viable cell number.

Data set [5] concerns the target T2, CYP3A4(BQ) (Homo sapiens, UniProt P08684).
T2 construct: purchased BD Biosciences
Briefly: CYP inhibition (fluorescent substrate), CYP3A4(BQ). The class given is in vitro ADME. The conditions noted are these: read-out: Cyp IC50 (μM) 3A4(BQ). The procedure:
as §1

Data set [6] has as its system SW620 cells. Put plainly: Cell growth inhibition (Cell Titer Glo), SW620. The class given is cell-based. The conditions noted are these: Homo sapiens, SW-620, 72 h; wild-type B-RAF cell line, 3 days. The procedure:
as §2
SW620 cells growth medium: • Leibovitz's L-15 medium, 2 mM L-glutamine, 10% fetal bovine serum.
as §3

Hgk, sequence (O95819 whole entry, species assumed): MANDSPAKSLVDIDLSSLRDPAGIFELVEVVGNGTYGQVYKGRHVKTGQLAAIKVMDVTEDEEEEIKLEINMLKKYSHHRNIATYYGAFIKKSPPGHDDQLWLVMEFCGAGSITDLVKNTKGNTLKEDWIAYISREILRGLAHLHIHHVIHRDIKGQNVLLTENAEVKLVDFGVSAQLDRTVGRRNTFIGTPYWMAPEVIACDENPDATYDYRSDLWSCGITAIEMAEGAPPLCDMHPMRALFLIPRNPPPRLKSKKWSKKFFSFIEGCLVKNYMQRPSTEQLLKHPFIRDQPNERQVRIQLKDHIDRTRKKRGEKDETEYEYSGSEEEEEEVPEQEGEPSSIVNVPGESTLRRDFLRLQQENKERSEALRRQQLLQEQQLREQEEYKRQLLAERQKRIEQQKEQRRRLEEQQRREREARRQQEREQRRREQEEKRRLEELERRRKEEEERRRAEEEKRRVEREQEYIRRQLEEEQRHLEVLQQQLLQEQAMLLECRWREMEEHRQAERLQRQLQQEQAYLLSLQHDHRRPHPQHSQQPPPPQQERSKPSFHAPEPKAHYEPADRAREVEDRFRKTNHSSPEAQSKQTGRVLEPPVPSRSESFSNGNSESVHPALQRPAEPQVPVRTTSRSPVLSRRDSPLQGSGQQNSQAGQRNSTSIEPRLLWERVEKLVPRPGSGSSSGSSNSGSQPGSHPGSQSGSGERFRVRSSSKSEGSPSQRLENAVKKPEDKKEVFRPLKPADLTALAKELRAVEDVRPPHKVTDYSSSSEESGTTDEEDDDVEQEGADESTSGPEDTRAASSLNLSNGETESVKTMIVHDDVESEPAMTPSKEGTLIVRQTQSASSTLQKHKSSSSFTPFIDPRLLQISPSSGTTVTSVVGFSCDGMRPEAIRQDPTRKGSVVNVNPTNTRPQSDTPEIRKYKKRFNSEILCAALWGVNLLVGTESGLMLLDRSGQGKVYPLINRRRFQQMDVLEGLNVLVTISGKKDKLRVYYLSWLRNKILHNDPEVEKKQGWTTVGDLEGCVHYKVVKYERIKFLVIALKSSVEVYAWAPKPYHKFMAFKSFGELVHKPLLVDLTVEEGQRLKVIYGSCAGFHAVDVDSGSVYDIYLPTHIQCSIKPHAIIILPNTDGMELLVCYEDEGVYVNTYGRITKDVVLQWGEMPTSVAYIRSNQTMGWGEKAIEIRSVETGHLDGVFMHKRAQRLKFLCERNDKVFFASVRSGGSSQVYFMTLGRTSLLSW
T2 sequence (P08684 whole entry): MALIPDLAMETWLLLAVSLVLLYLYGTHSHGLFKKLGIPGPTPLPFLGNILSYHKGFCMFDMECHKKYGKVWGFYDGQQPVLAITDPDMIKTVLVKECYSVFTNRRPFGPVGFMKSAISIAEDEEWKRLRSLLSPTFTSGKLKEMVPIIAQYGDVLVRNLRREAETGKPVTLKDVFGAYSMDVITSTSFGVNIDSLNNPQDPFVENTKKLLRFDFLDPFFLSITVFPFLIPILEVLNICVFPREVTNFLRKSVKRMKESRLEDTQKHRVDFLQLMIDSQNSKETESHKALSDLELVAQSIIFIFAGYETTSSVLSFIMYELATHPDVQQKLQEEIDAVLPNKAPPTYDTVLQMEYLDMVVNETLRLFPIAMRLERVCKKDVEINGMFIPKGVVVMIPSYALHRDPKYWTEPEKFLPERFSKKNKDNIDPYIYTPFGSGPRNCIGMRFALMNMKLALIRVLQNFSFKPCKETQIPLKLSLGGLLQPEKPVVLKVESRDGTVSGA

As for `CCCS(=O)(=O)Nc1ccc(F)c(C(=O)c2c[nH]c3ncc(-c4cnc(OC)nc4)cc23)c1F` [Compound P-0001, propane-1-sulfonic acid {2,4-difluoro-3-[5-(2-methoxy-pyrimidin-5-yl)-1H-pyrrolo[2,3-b]pyridine-3-carbonyl]-phenyl}-amide], the “Kinase having IC50 of >1 μM” value in data set [1] is “Hgk”. Also, in data set [2], the “turbidity threshold (L, M, H) 1.4” value is recorded as “M (moderate solubility if the threshold concentration is 31.3 μM to 250 μM)”. The IC50 was over 10 µM in data set [3], under 1 µM in data set [4], over 10 µM in data set [5] and over 20 µM in data set [6].

Regarding `CCCS(=O)(=O)Nc1ccc(F)c(C(=O)c2c[nH]c3ncc(C#N)cc23)c1F` [Compound P-0002, propane-1-sulfonic acid [3-(5-cyano-1H-pyrrolo[2,3-b]pyridine-3-carbonyl)-2,4-difluoro-phenyl]-amide], the “Kinase having IC50 of >1 μM” value in data set [1] is recorded as “Hgk”. The “turbidity threshold (L, M, H) 1.4” value in data set [2] is on record as “M (moderate solubility if the threshold concentration is 31.3 μM to 250 μM)”. Further, the IC50 in data set [3] was over 10 µM; in data set [4], under 1 µM; in data set [5], over 10 µM; in data set [6], over 20 µM.

For the molecule `CCCS(=O)(=O)Nc1cccc(C(=O)c2c[nH]c3ncc(C#N)cc23)c1F` [Compound P-0003, propane-1-sulfonic acid [3-(5-cyano-1H-pyrrolo[2,3-b]pyridine-3-carbonyl)-2-fluoro-phenyl]-amide], the “Kinase having IC50 of >1 μM” value in data set [1] is on record as “Hgk”. For the same molecule, in data set [2], the “turbidity threshold (L, M, H) 1.4” value is given as “M (moderate solubility if the threshold concentration is 31.3 μM to 250 μM)”. Moreover, the half-maximal inhibitory concentration (IC50) in data set [3] is over 10 µM; in data set [4] it was under 2 µM; in data set [5], over 10 µM; in data set [6] it was over 20 µM.

`N#Cc1cnc2[nH]cc(C(=O)c3c(F)ccc(NS(=O)(=O)c4cc(F)ccc4F)c3F)c2c1` [Compound P-0004, N-[3-(5-cyano-1H-pyrrolo[2,3-b]pyridine-3-carbonyl)-2,4-difluoro-phenyl]-2,5-difluoro-benzenesulfonamide]: the “Kinase having IC50 of <1 μM” value in data set [1] was “Hgk”. Moreover, the “turbidity threshold (L, M, H) 1.4” value in data set [2] was “M (moderate solubility if the threshold concentration is 31.3 μM to 250 μM)”. The IC50 in data set [3] is over 10 µM; in data set [4], under 1 µM; in data set [5], 5 to 10 µM; in data set [6], over 20 µM.

With `N#Cc1cnc2[nH]cc(C(=O)c3c(F)ccc(NS(=O)(=O)c4cccc(F)c4)c3F)c2c1` [Compound P-0005, N-[3-(5-cyano-1H-pyrrolo[2,3-b]pyridine-3-carbonyl)-2,4-difluoro-phenyl]-3-fluoro-benzenesulfonamide], the “Kinase having IC50 of <1 μM” value in data set [1] is listed as “Hgk”. Besides, the “turbidity threshold (L, M, H) 1.4” value in data set [2] is “M (moderate solubility if the threshold concentration is 31.3 μM to 250 μM)”. In addition, the IC50 in data set [3] was over 10 µM; in data set [4], under 1 µM; in data set [5], 5 to 10 µM; in data set [6] it was over 20 µM.

`N#Cc1cnc2[nH]cc(C(=O)c3c(F)ccc(NS(=O)(=O)N4CCCC4)c3F)c2c1` [Compound P-0006, pyrrolidine-1-sulfonic acid [3-(5-cyano-1H-pyrrolo[2,3-b]pyridine-3-carbonyl)-2,4-difluoro-phenyl]-amide]: the “Kinase having IC50 of >1 μM” value in data set [1] is reported as “Hgk”. The “turbidity threshold (L, M, H) 1.4” value in data set [2] was “M (moderate solubility if the threshold concentration is 31.3 μM to 250 μM)”. Moreover, the half-inhibitory concentration (IC50) was over 10 µM in data set [3], under 1 µM in data set [4] and over 10 µM in data set [5].

Regarding `CN(C)S(=O)(=O)Nc1ccc(F)c(C(=O)c2c[nH]c3ncc(C#N)cc23)c1F` [Compound P-0007, N,N-dimethylamino-sulfonic acid [3-(5-cyano-1H-pyrrolo[2,3-b]pyridine-3-carbonyl)-2,4-difluoro-phenyl]-amide], in data set [1], the “Kinase having IC50 of >1 μM” value is listed as “Hgk”. The “turbidity threshold (L, M, H) 1.4” value in data set [2] is on record as “M (moderate solubility if the threshold concentration is 31.3 μM to 250 μM)”. For the same molecule, the IC50 in data set [3] was over 10 µM; in data set [4], under 3 µM; in data set [5], under 5 µM; in data set [6], over 20 µM.

These data come from patent US8901301B2, “Pyrrolo[2,3-]pyridine kinase inhibitors” (Plexxikon Inc., priority 2009, dated 2014).
